Legend:
[1] = target: T1, Muscarinic acetylcholine receptor M2 (Homo sapiens, UniProt P08172); format: cell membranes, CHO-K1, Membrane; settings: cho-k1; also: in other assays of this panel Not Active means under 50% inhibition at 10 µM
T1 sequence (P08172 whole entry): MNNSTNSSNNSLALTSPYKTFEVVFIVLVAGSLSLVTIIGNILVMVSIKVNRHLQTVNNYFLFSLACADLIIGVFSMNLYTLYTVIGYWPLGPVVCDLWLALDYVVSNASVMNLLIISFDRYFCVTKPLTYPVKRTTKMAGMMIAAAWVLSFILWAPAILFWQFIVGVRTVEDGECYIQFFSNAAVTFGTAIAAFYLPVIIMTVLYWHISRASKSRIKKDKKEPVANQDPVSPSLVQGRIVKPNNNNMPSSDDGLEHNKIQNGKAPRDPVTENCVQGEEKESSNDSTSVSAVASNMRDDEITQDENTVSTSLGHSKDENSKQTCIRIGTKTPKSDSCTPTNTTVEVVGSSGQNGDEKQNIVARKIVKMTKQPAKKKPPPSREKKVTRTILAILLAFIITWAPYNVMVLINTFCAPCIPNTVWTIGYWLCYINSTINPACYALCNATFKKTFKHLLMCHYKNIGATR

[2] = target: Delta-type opioid receptor (Homo sapiens, UniProt P41143); format: cell membranes, HEK293, Membrane; settings: hek293; also: in other assays of this panel Not Active means under 50% inhibition at 10 µM
Sequence of Delta-type opioid receptor (P41143 whole entry): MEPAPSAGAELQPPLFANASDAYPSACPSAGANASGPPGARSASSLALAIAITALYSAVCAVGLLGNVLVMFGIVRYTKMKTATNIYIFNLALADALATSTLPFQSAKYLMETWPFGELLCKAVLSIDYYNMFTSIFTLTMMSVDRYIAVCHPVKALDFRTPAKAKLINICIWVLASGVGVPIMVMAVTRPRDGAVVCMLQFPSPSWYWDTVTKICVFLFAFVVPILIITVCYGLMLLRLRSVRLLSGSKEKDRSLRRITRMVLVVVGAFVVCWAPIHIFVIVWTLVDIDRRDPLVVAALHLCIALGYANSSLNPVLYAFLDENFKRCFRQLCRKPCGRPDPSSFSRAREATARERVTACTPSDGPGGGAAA

Progesterone receptor = target: T2, Progesterone receptor (Bos taurus, UniProt Q690N0); test: DRUGMATRIX: Progesterone radioligand binding (ligand: [3H] R-5020); format: tissue-based, Uterus; settings: Not Active = under 50% inhibition at 10 µM
T2 sequence (Q690N0 whole entry): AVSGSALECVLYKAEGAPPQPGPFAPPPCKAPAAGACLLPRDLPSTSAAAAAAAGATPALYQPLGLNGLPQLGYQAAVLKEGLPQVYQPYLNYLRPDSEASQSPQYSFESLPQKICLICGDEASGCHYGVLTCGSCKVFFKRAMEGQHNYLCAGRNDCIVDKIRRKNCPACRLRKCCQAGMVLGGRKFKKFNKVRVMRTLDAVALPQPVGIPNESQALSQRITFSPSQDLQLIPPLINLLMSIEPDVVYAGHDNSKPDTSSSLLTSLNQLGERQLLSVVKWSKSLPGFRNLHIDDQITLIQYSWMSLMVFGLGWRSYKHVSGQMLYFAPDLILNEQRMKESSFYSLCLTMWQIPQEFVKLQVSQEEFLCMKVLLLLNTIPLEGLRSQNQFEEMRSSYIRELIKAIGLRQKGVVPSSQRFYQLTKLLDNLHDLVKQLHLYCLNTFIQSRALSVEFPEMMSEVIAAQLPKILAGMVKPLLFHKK

[3] = target: Protein kinase C alpha type (Homo sapiens, UniProt P17252); format: cell-based; settings: sf9;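 also: inhibition of PKCalpha kinase activity measured in an enzyme assay with histone as the phosphorylation substrate; in other assays of this panel Not Active means under 50% inhibition at 10 µM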
[4] = target: Epidermal growth factor receptor (Homo sapiens, UniProt P00533); test: DRUGMATRIX: Protein Tyrosine Kinase, EGF Receptor enzyme inhibition (substrate: Poly(Glu:Tyr)); format: cell-based, Insect cells; settings: insect cells, Not Active = under 50% inhibition at 10 µM
Cytochrome P450 2C19 = Cytochrome P450 2C19 (Homo sapiens, UniProt P33261); settings: bti-tn-5b1-4; also: in other assays of this panel Not Active means under 50% inhibition at 10 µM
Sequence of Cytochrome P450 2C19 (P33261 whole entry): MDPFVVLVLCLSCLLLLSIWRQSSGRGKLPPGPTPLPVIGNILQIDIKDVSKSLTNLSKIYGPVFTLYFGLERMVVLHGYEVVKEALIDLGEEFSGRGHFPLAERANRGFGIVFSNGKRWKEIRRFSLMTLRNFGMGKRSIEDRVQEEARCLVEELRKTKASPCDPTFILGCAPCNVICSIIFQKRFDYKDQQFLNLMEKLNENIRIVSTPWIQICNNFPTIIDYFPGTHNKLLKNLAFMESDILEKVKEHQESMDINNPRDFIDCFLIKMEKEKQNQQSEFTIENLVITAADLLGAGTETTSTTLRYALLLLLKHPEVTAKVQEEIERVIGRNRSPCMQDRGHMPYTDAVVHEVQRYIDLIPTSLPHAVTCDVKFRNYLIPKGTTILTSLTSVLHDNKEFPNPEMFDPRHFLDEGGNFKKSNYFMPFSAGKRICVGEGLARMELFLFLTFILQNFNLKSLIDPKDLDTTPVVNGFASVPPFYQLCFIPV

## CC(C)Cc1ccc(C(C)C(=O)O)cc1 (stereo unspecified) [IBUPROFEN]
[1]
  IC50: Not Active
[2]
  IC50: Not Active
Progesterone receptor
  IC50: Not Active
[3]
  IC50: Not Active
[4]
  IC50: Not Active
Cytochrome P450 2C19
  IC50: Not Active
  Ki: Not Active

## COc1ccc2c(c1)c(CC(=O)O)c(C)n2C(=O)c1ccc(Cl)cc1 [INDOMETHACIN]
[1]
  IC50: Not Active
[2]
  IC50: Not Active
Progesterone receptor
  IC50: Not Active
[3]
  IC50: Not Active
[4]
  IC50: Not Active
Cytochrome P450 2C19
  IC50: Not Active
  Ki: Not Active

## CCc1c2c(nc3ccc(OC(=O)N4CCC(N5CCCCC5)CC4)cc13)-c1cc3c(c(=O)n1C2)COC(=O)[C@]3(O)CC [IRINOTECAN]
[1]
  IC50: Not Active
[2]
  IC50: Not Active
Progesterone receptor
  IC50: Not Active
[3]
  IC50: Not Active
[4]
  IC50: Not Active
Cytochrome P450 2C19
  IC50: Not Active
  Ki: Not Active

## CC(C(=O)O)c1cccc(C(=O)c2ccccc2)c1 (stereo unspecified) [KETOPROFEN]
[1]
  IC50: Not Active
[2]
  IC50: Not Active
Progesterone receptor
  IC50: Not Active
[3]
  IC50: Not Active
[4]
  IC50: Not Active
Cytochrome P450 2C19
  IC50: Not Active
  Ki: Not Active

## Nc1ccn([C@@H]2CS[C@H](CO)O2)c(=O)n1 [LAMIVUDINE]
[1]
  IC50: Not Active
[2]
  IC50: Not Active
Progesterone receptor
  IC50: Not Active
[3]
  IC50: Not Active
[4]
  IC50: Not Active
Cytochrome P450 2C19
  IC50: Not Active
  Ki: Not Active

## O=S(=O)([O-])CCS.[Na+] [MESNA]
[1]
  IC50: Not Active
[2]
  IC50: Not Active
Progesterone receptor
  IC50: Not Active
[3]
  IC50: Not Active
[4]
  IC50: Not Active
Cytochrome P450 2C19
  IC50: Not Active
  Ki: Not Active

## C#C[C@]1(O)CC[C@H]2[C@@H]3CCc4cc(OC)ccc4[C@H]3CC[C@@]21C [MESTRANOL]
[1]
  IC50: Not Active
[2]
  IC50: Not Active
Progesterone receptor; read-out: IC50
  IC50: 84.4 µM
Progesterone receptor; read-out: Ki
  Ki: 11 µM
[3]
  IC50: Not Active
[4]
  IC50: Not Active
Cytochrome P450 2C19
  IC50: Not Active
  Ki: Not Active

## CC(=O)Nc1cccc(O)c1 [METACETAMOL]
[1]
  IC50: Not Active
[2]
  IC50: Not Active
Progesterone receptor
  IC50: Not Active
[3]
  IC50: Not Active
[4]
  IC50: Not Active
Cytochrome P450 2C19
  IC50: Not Active
  Ki: Not Active

## Cc1ncc([N+](=O)[O-])n1CCO [METRONIDAZOLE]
[1]
  IC50: Not Active
[2]
  IC50: Not Active
Progesterone receptor
  IC50: Not Active
[3]
  IC50: Not Active
[4]
  IC50: Not Active
Cytochrome P450 2C19
  IC50: Not Active
  Ki: Not Active

## CC(C)(C(=O)c1cccnc1)c1cccnc1 [METYRAPONE]
[1]
  IC50: Not Active
[2]
  IC50: Not Active
Progesterone receptor
  IC50: Not Active
[3]
  IC50: Not Active
[4]
  IC50: Not Active
Cytochrome P450 2C19
  IC50: Not Active
  Ki: Not Active

## Oc1ccc(OCc2ccccc2)cc1 [MONOBENZONE]
[1]
  IC50: Not Active
[2]
  IC50: Not Active
Progesterone receptor
  IC50: Not Active
[3]
  IC50: Not Active
[4]
  IC50: Not Active
Cytochrome P450 2C19
  IC50: Not Active
  Ki: Not Active

## CC(C)(Oc1ccc(C2CCCc3ccccc32)cc1)C(=O)O (stereo unspecified) [NAFENOPIN]
[1]
  IC50: Not Active
[2]
  IC50: Not Active
Progesterone receptor
  IC50: Not Active
[3]
  IC50: Not Active
[4]
  IC50: Not Active
Cytochrome P450 2C19
  IC50: Not Active
  Ki: Not Active

## CC(C)[C@H]1CC[C@H](C(=O)N[C@H](Cc2ccccc2)C(=O)O)CC1 [NATEGLINIDE]
[1]
  IC50: Not Active
[2]
  IC50: Not Active
Progesterone receptor
  IC50: Not Active
[3]
  IC50: Not Active
[4]
  IC50: Not Active
Cytochrome P450 2C19
  IC50: Not Active
  Ki: Not Active

## COc1ccc2[nH]c([S+]([O-])Cc3ncc(C)c(OC)c3C)nc2c1 (stereo unspecified) [OMEPRAZOLE]
[1]
  IC50: Not Active
[2]
  IC50: Not Active
Progesterone receptor
  IC50: Not Active
[3]
  IC50: Not Active
[4]
  IC50: Not Active
Cytochrome P450 2C19
  IC50: Not Active
  Ki: Not Active

## Cc1nccn1CC1CCc2c(c3ccccc3n2C)C1=O (stereo unspecified) [ONDANSETRON]
[1]
  IC50: Not Active
[2]
  IC50: Not Active
Progesterone receptor
  IC50: Not Active
[3]
  IC50: Not Active
[4]
  IC50: Not Active
Cytochrome P450 2C19
  IC50: Not Active
  Ki: Not Active

## O=C(C1CCCCC1)N1CC(=O)N2CCc3ccccc3C2C1 (stereo unspecified) [PRAZIQUANTEL]
[1]
  IC50: Not Active
[2]
  IC50: Not Active
Progesterone receptor
  IC50: Not Active
[3]
  IC50: Not Active
[4]
  IC50: Not Active
Cytochrome P450 2C19
  IC50: Not Active
  Ki: Not Active

## CCN(CC)CCOC(=O)c1ccc(N)cc1 [PROCAINE]
[1]
  IC50: Not Active
[2]
  IC50: Not Active
Progesterone receptor
  IC50: Not Active
[3]
  IC50: Not Active
[4]
  IC50: Not Active
Cytochrome P450 2C19
  IC50: Not Active
  Ki: Not Active

## CCCN(CCC)C(=O)C(CCC(=O)O)NC(=O)c1ccccc1 (stereo unspecified) [PROGLUMIDE]
[1]
  IC50: Not Active
[2]
  IC50: Not Active
Progesterone receptor
  IC50: Not Active
[3]
  IC50: Not Active
[4]
  IC50: Not Active
Cytochrome P450 2C19
  IC50: Not Active
  Ki: Not Active

## NC(=O)c1cnccn1 [PYRAZINAMIDE]
[1]
  IC50: Not Active
[2]
  IC50: Not Active
Progesterone receptor
  IC50: Not Active
[3]
  IC50: Not Active
[4]
  IC50: Not Active
Cytochrome P450 2C19
  IC50: Not Active
  Ki: Not Active

## Cc1cc2cc3c(C)cc(=O)oc3c(C)c2o1 [TRIOXSALEN]
[1]
  IC50: Not Active
[2]
  IC50: Not Active
Progesterone receptor
  IC50: Not Active
[3]
  IC50: Not Active
[4]
  IC50: Not Active
Cytochrome P450 2C19
  IC50: Not Active
  Ki: Not Active

## CCCC(CCC)C(=O)O [VALPROIC ACID]
[1]
  IC50: Not Active
[2]
  IC50: Not Active
Progesterone receptor
  IC50: Not Active
[3]
  IC50: Not Active
[4]
  IC50: Not Active
Cytochrome P450 2C19
  IC50: Not Active
  Ki: Not Active

## CCC1=C[C@@H]2CN(C1)Cc1c([nH]c3ccccc13)[C@@](C(=O)OC)(c1cc3c(cc1OC)N(C)[C@H]1[C@@](O)(C(=O)OC)[C@H](OC(C)=O)[C@]4(CC)C=CCN5CC[C@]31[C@@H]54)C2 [VINORELBINE]
[1]
  IC50: Not Active
[2]
  IC50: Not Active
Progesterone receptor
  IC50: Not Active
[3]
  IC50: Not Active
[4]
  IC50: Not Active
Cytochrome P450 2C19
  IC50: Not Active
  Ki: Not Active

## CADMIUM DICHLORIDE
[1]
  IC50: Not Active
  Ki: Not Active
[2]
  IC50: Not Active
  Ki: Not Active
Progesterone receptor
  IC50: Not Active
  Ki: Not Active
[3]
  IC50: Not Active
  Ki: Not Active
[4]; read-out: IC50
  IC50: 0.486 µM
Cytochrome P450 2C19
  IC50: Not Active
  Ki: Not Active

— ChEMBL document CHEMBL1909046, “DrugMatrix in vitro pharmacology data”
